# Data from patent publication US20240299492A1, “COMBINATION THERAPIES WITH SIRP ALPHA-BASED CHIMERIC PROTEINS” (Shattuck Labs, Inc., priority 2021, published 2024).
# Columns and labels:
# [1] = tested on: KMS12B multiple myeloma cells; assay: Phagocytosis of KMS12B cells by M1 macrophages with activated T cells (flow cytometry): pomalidomide with or without SIRPα-Fc-CD40L; format: cell-based, human; conditions: 10 μM pomalidomide, CD3/CD28 activated T cells, M1 polarized macrophages, 4 hours; FIG. 7
# Experimental: Briefly, CD14+ monocytes were isolated from human donor PBMCs and cultured with m-CSF (100 ng/ml) for 6 days. On day 6, IFNγ (100 ng/ml) and LPS (10 ng/ml) were added to the cells for an additional 24 hours, generating M1 polarized macrophages. On day 5 of the macrophage differentiation, another vial of PBMCs from the same human donor was thawed, and CD3 T cells were isolated using a magnetic bead isolation kit. These T cells were activated for 2 days with CD3/CD28 T cell magnetic activation beads. On day 7 when both the macrophages and T cells were activated and ready, they were combined with KMS12B multiple myeloma cells, which were labeled with a green fluorescent tracker, with 10 μM pomalidomide and with or without 50 μg/ml of the SIPRα-Fc-CD40L chimeric protein. KMS12B cells incubated with the macrophages and 10 μM pomalidomide, without T cells, were used as a negative control. This coculture was incubated for 4 hours at 37° C., 5% CO2. After this incubation, the cells were harvested and treated with an anti-CD11b antibody (a macrophage marker) and were analyzed using flow cytometry. Positive phagocytosis was determined by the overlap in signals of tumor (the green fluorescent tracker) and macrophage (anti-CD11b antibody staining). A phagocytosis index was calculated by setting the maximum phagocytosis value to 1, and then normalizing all other replicates accordingly. […]
# [2] = tested on: CT26 tumor cells; assay: In vivo anti-tumor efficacy, CT26 colorectal carcinoma mouse allograft model; parameters: species or system BALB/C mice
# Experimental: The efficacy of the SIRPα-Fc-CD40L chimeric protein was evaluated in combination with a spindle toxin. Towards that, the ability of paclitaxel and chimeric proteins to target and reduce tumor volume in vivo was determined. Briefly, BALB/C mice were inoculated with 500,000 CT26 tumor cells. When tumor volumes were approximately 50 to 60 mm^3 (day 0), the mice were randomly distributed in the following treatment groups: (1) vehicle only control, (2) 300 μg of the SIRPα-Fc-CD40L chimeric protein alone, (3) 24 mg/kg paclitaxel alone, and (4) a combination 300 μg of the SIRPα-Fc-CD40L chimeric protein and 24 mg/kg paclitaxel. The mice were dosed on days 0, 3 and 6 via intraperitoneal injections. Tumors were measured with electronic calipers on day 14 and plotted using the GraphPad Prism software.
# The efficacy of the SIRPα-Fc-CD40L chimeric protein was evaluated in combination with an antimetabolite or. Towards that, the ability of 5-fluorouracil and chimeric proteins to target and reduce tumor volume in vivo was determined. Briefly, BALB/C mice were inoculated with 500,000 CT26 tumor cells. When tumor volumes were approximately 50 to 60 mm^3 (day 0), the mice were randomly distributed in the following treatment groups: (1) vehicle only control, (2) 300 μg of the SIRPα-Fc-CD40L chimeric protein alone, (3) 20 mg/kg 5-fluorouracil alone, and (4) a combination 300 μg of the SIRPα-Fc-CD40L chimeric protein and 20 mg/kg 5-fluorouracil. The mice were dosed via intraperitoneal injections as follows: the SIRPα-Fc-CD40L chimeric protein was administered on days 0, 3 and 6; and 5-fluorouracil was administered on days 0, 2 and 4. Tumors were measured with electronic calipers on day 11 and plotted using the GraphPad Prism software.
# The efficacy of the SIRPα-Fc-CD40L chimeric protein was evaluated in combination with a topoisomerase I inhibitor. Towards that, the ability of irinotecan and chimeric proteins to target and reduce tumor volume in vivo was determined. Briefly, BALB/C mice were inoculated with 500,000 CT26 tumor cells. When tumor volumes were approximately 50 to 60 mm^3 (day 0), the mice were randomly distributed in the following treatment groups: (1) vehicle only control, (2) 300 μg of the SIRPα-Fc-CD40L chimeric protein alone, (3) 25 mg/kg irinotecan alone, and (4) a combination 300 μg of the SIRPα-Fc-CD40L chimeric protein and 25 mg/kg irinotecan. The mice were dosed on days 0 and 2 via intraperitoneal injections. Tumors were measured with electronic calipers on day 4 and plotted using the GraphPad Prism software.
# The efficacy of the SIRPα-Fc-CD40L chimeric protein was evaluated in combination with an anthracycline. Towards that, the ability of doxorubicin and chimeric proteins to target and reduce tumor volume in vivo was determined. Briefly, BALB/C mice were inoculated with 500,000 CT26 tumor cells. When tumor volumes were approximately 50 to 60 mm^3 (day 0), the mice were randomly distributed in the following treatment groups: (1) vehicle only control, (2) 300 μg of the SIRPα-Fc-CD40L chimeric protein alone, (3) 8 mg/kg doxorubicin alone, and (4) a combination 300 μg of the SIRPα-Fc-CD40L chimeric protein and 8 mg/kg doxorubicin. The mice were dosed with the SIRPα-Fc-CD40L chimeric protein on days 0, 3 and 6 via intraperitoneal injections, and with doxorubicin thrice through the tail vein. Tumors were measured with electronic calipers on day 7 and plotted using the GraphPad Prism software.
# The efficacy of the SIRPα-Fc-CD40L chimeric protein was evaluated in combination with a platinum compound. Towards that, the ability of cisplatin and chimeric proteins to target and reduce tumor volume in vivo was determined. Briefly, BALB/C mice were inoculated with 500,000 CT26 tumor cells. […]
# [3] = tested on: ARD1 human multiple myeloma cells; assay: Phagocytosis of ARD1 cells by human macrophages (flow cytometry): elotuzumab and/or SIRPα-Fc-CD40L; format: cell-based; conditions: 1 μg/ml elotuzumab and/or SIRPα-Fc-CD40L (10 μg/ml alone; 10 pg/ml in the combination), 4 hours; combination p<0.05 vs vehicle; FIG. 8
# Experimental: Briefly, the ARD1 human multiple myeloma cells were labeled with a green fluorescent tracker and co-cultured with human macrophages and treated with (1) vehicle alone control, (2) 10 μg/ml of the SIRPα-Fc-CD40L chimeric protein, (3) 1 μg/ml of elotuzumab (an antibody-dependent cellular phagocytosis (ADCP)-proficient anti-SLAMF7 antibody), or (4) 1 μg/ml of elotuzumab and 10 pg/ml of the SIRPα-Fc-CD40L chimeric protein and incubated at 37° C. in the presence of 5% CO2 for 4 hours. After this incubation, the cells were harvested and treated with an anti-CD11b antibody (a macrophage marker) and were analyzed using flow cytometry. Positive phagocytosis was determined by the overlap in signals of tumor (the green fluorescent tracker) and macrophage (anti-CD11b antibody staining). A phagocytosis index was calculated by setting the maximum phagocytosis value to 1, and then normalizing all other replicates accordingly. The phagocytosis index was plotted for the indicated treatments.
# [4] = tested on: MM1R human multiple myeloma (MM) cells; assay: Phagocytosis of MM1R cells by human macrophages (flow cytometry): bortezomib and/or SIRPα-Fc-CD40L; format: cell-based; conditions: 1 pM bortezomib overnight and/or SIRPα-Fc-CD40L for 4 hours; combination p<0.0001 vs control; FIG. 3A
# Experimental: (§1) Briefly, the MM1R human multiple myeloma (MM) cells were labeled with a green fluorescent tracker and treated with vehicle alone control or 1 pM bortezomib overnight. The following day, the tumor cells were washed in PBS and then co-cultured with human macrophages with or without the SIRPα-Fc-CD40L chimeric protein for 4 hours at 37° C. in the presence of 5% CO2. After this incubation, the cells were harvested and treated with an anti-CD11b antibody (a macrophage marker) and were analyzed using flow cytometry. Positive phagocytosis was determined by the overlap in signals of tumor (the green fluorescent tracker) and macrophage (anti-CD11b antibody staining). A phagocytosis index was calculated by setting the maximum phagocytosis value to 1, and then normalizing all other replicates accordingly. The phagocytosis index was plotted for the indicated treatments.
# [5] = tested on: ARD1 human multiple myeloma (MM) cells; assay: Phagocytosis of ARD1 cells by human macrophages (flow cytometry): bortezomib and/or SIRPα-Fc-CD40L; format: cell-based; conditions: 1 pM bortezomib overnight and/or SIRPα-Fc-CD40L for 4 hours; combination p<0.0001 vs control; FIG. 3B
# Experimental: as §1, with “In another experiment,” for “Briefly,”, “ARD1” for “MM1R”
# [6] = tested on: ARD1 human multiple myeloma (MM) cells; assay: Phagocytosis of ARD1 cells by human macrophages (IncuCyte phRodo Red imaging): daratumumab and/or SIRPα-Fc-CD40L; format: cell-based; conditions: 1 μg/ml daratumumab and/or 10 μg/ml SIRPα-Fc-CD40L, 2 hours, combination p<0.0001 vs vehicle, FIG. 6
# Experimental: Briefly, the ARD1 human multiple myeloma (MM) cells were labeled the IncuCyte phRodo Red cell labeling kit and co-cultured with human macrophages and treated with (1) vehicle alone control, (2) 10 μg/ml of the SIRPα-Fc-CD40L chimeric protein, (3) 1 μg/ml of daratumumab (an antibody-dependent cellular phagocytosis (ADCP)-proficient anti-CD38 antibody), or (4) 1 μg/ml of an daratumumab and 10 μg/ml of the SIRPα-Fc-CD40L chimeric protein and incubated at 37° C. in the presence of 5% CO2 for 2 hours. Cultures were imaged using the IncuCyte time-lapse microscopy system, and positive phagocytosis was determined by an increase in red fluorescent intensity which occurs when the phRodo Red labeled tumor cell is internalized into the acidic macrophage phagosome. A phagocytosis index was calculated by setting the maximum phagocytosis value to 1, and then normalizing all other replicates accordingly. The phagocytosis index was plotted for the indicated treatments.
molecule,measurement,setting,value
Nc1cccc2c1C(=O)N(C1CCC(=O)NC1=O)C2=O (centres unmarked) [pomalidomide],"phagocytosis of KMS12B cells incubated with T cells, macrophages and pomalidomide compared to incubation without T cells (negative control)",[1],increased phagocytosis
COc1cccc2c1C(=O)c1c(O)c3c(c(O)c1C2=O)C[C@@](O)(C(=O)CO)C[C@@H]3O[C@H]1C[C@H](N)[C@H](O)[C@H](C)O1 [doxorubicin],tumor size,"[2]; day 7, 300 μg SIRPα-Fc-CD40L (intraperitoneal, days 0, 3, 6) and/or 8 mg/kg doxorubicin (thrice, tail vein), FIG. 10D",reduction in tumor size
N.N.[Cl][Pt][Cl] [cisplatin],tumor size,"[2]; day 4, 300 μg SIRPα-Fc-CD40L (days 0 and 3) and/or 200 μg cisplatin (day 0), intraperitoneal, FIG. 10E",reduction in tumor size
O=C1[O][Pt]2([NH][C@@H]3CCCC[C@H]3[NH]2)[O]C1=O [oxaliplatin],tumor size,"[2]; day 4, 300 μg SIRPα-Fc-CD40L (days 0 and 3) and/or 10 mg/kg oxaliplatin (day 0), intraperitoneal, FIG. 10F",reduction in tumor size
elotuzumab: an antibody-dependent cellular phagocytosis (ADCP)-proficient anti-SLAMF7 antibody,level of phagocytosis (phagocytosis index) compared to the vehicle only-treated ARD1 cells,[3],increased level of phagocytosis
CC(C)C[C@H](NC(=O)[C@H](Cc1ccccc1)NC(=O)c1cnccn1)B(O)O [bortezomib],level of phagocytosis (phagocytosis index) compared to the control MM1R cells,[4],increased level of phagocytosis
same,level of phagocytosis (phagocytosis index) compared to the control ARD1 cells,[5],increased level of phagocytosis
daratumumab: an antibody-dependent cellular phagocytosis (ADCP)-proficient anti-CD38 antibody,level of phagocytosis (phagocytosis index) compared to the vehicle only-treated ARD1 cells,[6],increased level of phagocytosis
CC(=O)O[C@H]1C(=O)[C@@]2(C)[C@H]([C@H](OC(=O)c3ccccc3)[C@]3(O)C[C@H](OC(=O)[C@H](O)[C@@H](NC(=O)c4ccccc4)c4ccccc4)C(C)=C1C3(C)C)[C@]1(OC(C)=O)CO[C@@H]1C[C@@H]2O [paclitaxel],tumor size,"[2]; day 14, 300 μg SIRPα-Fc-CD40L and/or 24 mg/kg paclitaxel, intraperitoneal, days 0, 3 and 6, FIG. 10A",reduction in tumor size
CCc1c2c(nc3ccc(OC(=O)N4CCC(N5CCCCC5)CC4)cc13)-c1cc3c(c(=O)n1C2)COC(=O)[C@]3(O)CC [irinotecan],tumor size,"[2]; day 4, 300 μg SIRPα-Fc-CD40L and/or 25 mg/kg irinotecan, intraperitoneal, days 0 and 2, FIG. 10C",reduction in tumor size
O=c1[nH]cc(F)c(=O)[nH]1 [5-fluorouracil],tumor size,"[2]; day 11, 300 μg SIRPα-Fc-CD40L (days 0, 3, 6) and/or 20 mg/kg 5-fluorouracil (days 0, 2, 4), intraperitoneal, combination vs vehicle p<0.01, vs 5-fluorouracil alone p<0.05, FIG. 10B",reduction in tumor size
